According to US20120142667A1, “PYRIMIDINE DERIVATIVES AS ZAP-70 INHIBITORS” (priority 2009, published 2012):
Counter-ions that a name gives are not always drawn.

Biological target: T1, ZAP-70 (Homo sapiens, UniProt P43403)
T1 construct: endogenous in cells; host or cells: cell lysate
T1 sequence (P43403 1-619): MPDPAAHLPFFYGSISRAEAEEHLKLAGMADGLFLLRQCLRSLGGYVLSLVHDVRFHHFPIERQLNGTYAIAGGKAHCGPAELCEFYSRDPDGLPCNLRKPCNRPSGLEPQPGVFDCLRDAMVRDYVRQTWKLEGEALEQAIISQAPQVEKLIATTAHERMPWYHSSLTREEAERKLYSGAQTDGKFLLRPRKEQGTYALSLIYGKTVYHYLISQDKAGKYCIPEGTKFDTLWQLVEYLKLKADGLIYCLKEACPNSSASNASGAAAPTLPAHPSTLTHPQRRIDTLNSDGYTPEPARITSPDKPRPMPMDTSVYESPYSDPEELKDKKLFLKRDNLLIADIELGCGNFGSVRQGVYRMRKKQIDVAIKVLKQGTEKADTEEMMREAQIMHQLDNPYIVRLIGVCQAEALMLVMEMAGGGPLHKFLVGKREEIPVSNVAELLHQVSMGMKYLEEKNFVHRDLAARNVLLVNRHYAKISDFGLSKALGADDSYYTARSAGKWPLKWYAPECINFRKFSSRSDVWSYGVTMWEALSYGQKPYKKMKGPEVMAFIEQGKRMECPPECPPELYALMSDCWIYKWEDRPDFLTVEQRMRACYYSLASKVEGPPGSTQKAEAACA
Experiment: ZAP-70 kinobeads assay
Type: binding
Details: cell lysate
Procedure: The compounds of the present invention as described in the previous examples can be tested in the ZAP-70 kinobeads assay as described (EP-A 1862802 and WO-A 2007/137867). Briefly, test compounds (at various concentrations) and the affinity matrix with the immobilized aminopyrido-pyrimidine ligand 24 are added to cell lysate aliquots and allowed to bind to the proteins in the lysate sample. After the incubation time the beads with captured proteins are separated from the lysate. Bound proteins are then eluted and the presence ZAP-70 is detected and quantified using a specific antibody in a dot blot procedure and the Odyssey infrared detection system.

COc1cc(OC)c(OC)cc1Nc1ncc(Br)c(Nc2ccccc2NS(C)(=O)=O)n1 [Example 31, N-(2-(5-bromo-2-(2,4,5-trimethoxyphenylamino)pyrimidin-4-ylamino)phenyl)methanesulfonamide]
IC50: 0.1 to 1 µM

COc1cccc(Nc2ncc(Br)c(Nc3ccccc3NS(C)(=O)=O)n2)c1OC [Example 9, N-(2-(5-bromo-2-(2,3-dimethoxyphenylamino)pyrimidin-4-ylamino)phenyl)methanesulfonamide]
IC50: 1 to 10 µM

CS(=O)(=O)Nc1ccccc1Nc1nc(Nc2ccccc2F)ncc1Br [Example 17, N-(2-(5-bromo-2-(2-fluorophenylamino)pyrimidin-4-ylamino)phenyl)methanesulfonamide hydrochloride]
IC50: 0.1 to 1 µM

COc1ccc(Nc2nc(Nc3cc(C)ccc3OC)ncc2Cl)c(NS(C)(=O)=O)c1 [Example 56, N-(2-(5-chloro-2-(2-methoxy-5-methylphenylamino)pyrimidin-4-ylamino)-5-methoxyphenyl)methanesulfonamide]
IC50: 0.1 to 1 µM

COc1cc(OCCCN2CCCCC2)ccc1Nc1ncc(Br)c(Nc2ccccc2NS(C)(=O)=O)n1 [Example 28, N-(2-(5-bromo-2-(2-methoxy-4-(3-(piperidin-1-yl)propoxy)phenylamino)pyrimidin-4-ylamino)phenyl)methanesulfonamide]
IC50: ≤ 0.1 µM

COc1ccc(OCCO)cc1Nc1ncc(Cl)c(Nc2cccc(F)c2NS(C)(=O)=O)n1 [Example 116, N-(2-(5-chloro-2-(5-(2-hydroxyethoxy)-2-methoxyphenylamino)pyrimidin-4-ylamino)-6-fluorophenyl)methanesulfonamide]
IC50: 0.1 to 1 µM

COc1ccc(Nc2nc(Nc3ccccc3C)ncc2Cl)c(NS(C)(=O)=O)c1 [Example 50, N-(2-(5-chloro-2-(o-tolylamino)pyrimidin-4-ylamino)-5-methoxyphenyl)methanesulfonamide hydrochloride]
IC50: 0.1 to 1 µM

COc1ccc(Nc2ncc(Cl)c(Nc3ccc(OC)cc3NS(C)(=O)=O)n2)c(O)c1 [Example 41, N-(2-(5-chloro-2-(2-hydroxy-4-methoxyphenylamino)pyrimidin-4-ylamino)-5-methoxyphenyl)methanesulfonamide]
IC50: 0.1 to 1 µM

COc1ccc(OC)c(Nc2ncc(Br)c(Nc3ccccc3NS(C)(=O)=O)n2)c1 [Example 7, N-(2-(5-bromo-2-(2,5-dimethoxyphenylamino)pyrimidin-4-ylamino)phenyl)methanesulfonamide]
IC50: 0.1 to 1 µM

COc1ccc(Nc2nc(Nc3ccc(F)cc3C)ncc2Cl)c(NS(C)(=O)=O)c1 [Example 45, N-(2-(5-chloro-2-(4-fluoro-2-methylphenylamino)pyrimidin-4-ylamino)-5-methoxyphenyl)methanesulfonamide]
IC50: 0.1 to 1 µM

COc1ccc(Nc2nc(Nc3cc(C)c(OC)cc3OC)ncc2Cl)c(NS(C)(=O)=O)c1 [Example 39, N-(2-(5-chloro-2-(2,4-dimethoxy-5-methylphenylamino)pyrimidin-4-ylamino)-5-methoxyphenyl)methanesulfonamide]
IC50: 0.1 to 1 µM

COc1ccc(Nc2nc(Nc3cc(OC)cc(CO)c3OC)ncc2Cl)c(NS(C)(=O)=O)c1 [Example 96, N-(2-((5-chloro-2-((3-(hydroxymethyl)-2,5-dimethoxyphenyl)amino)pyrimidin-4-yl)amino)-5-methoxyphenyl)methanesulfonamide]
IC50: 0.1 to 1 µM

COc1ccc(Nc2nc(Nc3cc(F)c(OC)cc3OC)ncc2Cl)c(NS(C)(=O)=O)c1 [Example 38, N-(2-(5-chloro-2-(5-fluoro-2,4-dimethoxyphenylamino)pyrimidin-4-ylamino)-5-methoxyphenyl)methanesulfonamide hydrochloride]
IC50: 0.1 to 1 µM

COc1ccc(Nc2nc(Nc3cc(OC)ccc3OC)ncc2F)c(NS(C)(=O)=O)c1 [Example 27, N-(2-(2-(2,5-dimethoxyphenylamino)-5-fluoropyrimidin-4-ylamino)-5-methoxyphenyl)methanesulfonamide]
IC50: 1 to 10 µM

CS(=O)(=O)Nc1ccccc1Nc1nc(Nc2cc(F)ccc2F)ncc1F [Example 10, N-(2-(2-(2,5-difluorophenylamino)-5-fluoropyrimidin-4-ylamino)phenyl)methanesulfonamide]
IC50: 1 to 10 µM

COc1ccc(OCCO)cc1Nc1ncc(Cl)c(Nc2cccc(C)c2NS(C)(=O)=O)n1 [Example 118, N-(2-(5-chloro-2-(5-(2-hydroxyethoxy)-2-methoxyphenylamino)pyrimidin-4-ylamino)-6-methylphenyl)methanesulfonamide]
IC50: 0.1 to 1 µM

COc1ccc(Nc2nc(Nc3cc(OC)c(OC)cc3OC)ncc2F)c(NS(C)(=O)=O)c1 [Example 25, N-(2-(5-fluoro-2-(2,4,5-trimethoxyphenylamino)pyrimidin-4-ylamino)-5-methoxyphenyl)methanesulfonamide]
IC50: 0.1 to 1 µM

COc1ccc(Nc2nc(Nc3cccc(OCCC(F)(F)F)c3C)ncc2Cl)c(NS(C)(=O)=O)c1 [Example 98, N-(2-((5-chloro-2-((2-methyl-3-(3,3,3-trifluoropropoxy)phenyl)amino)pyrimidin-4-yl)amino)-5-methoxyphenyl)methanesulfonamide]
IC50: 0.1 to 1 µM

COc1ccc(Nc2ncc(F)c(Nc3ccccc3NS(C)(=O)=O)n2)c(OC)c1 [Example 14, N-(2-(2-(2,4-dimethoxyphenylamino)-5-fluoropyrimidin-4-ylamino)phenyl)methanesulfonamide]
IC50: 1 to 10 µM

COc1ccc(Nc2nc(Nc3ccccc3F)ncc2Cl)c(NS(C)(=O)=O)c1 [Example 48, N-(2-(5-chloro-2-(2-fluorophenylamino)pyrimidin-4-ylamino)-5-methoxyphenyl)methanesulfonamide]
IC50: 0.1 to 1 µM

COc1ccc(Nc2nc(Nc3cccc(F)c3OC)ncc2Cl)c(NS(C)(=O)=O)c1 [Example 61, N-(2-(5-chloro-2-(3-fluoro-2-methoxyphenylamino)pyrimidin-4-ylamino)-5-methoxyphenyl)methanesulfonamide hydrochloride]
IC50: 1 to 10 µM

COc1ccc(OCCO)cc1Nc1ncc(F)c(Nc2cccc(C)c2NS(C)(=O)=O)n1 [Example 103, N-(2-(5-fluoro-2-(5-(2-hydroxyethoxy)-2-methoxyphenylamino)pyrimidin-4-ylamino)-6-methylphenyl)methanesulfonamide]
IC50: 1 to 10 µM

Cc1ccccc1Nc1ncc(Br)c(Nc2ccccc2NS(C)(=O)=O)n1 [Example 24, N-(2-(5-bromo-2-(2-methylphenylamino)pyrimidin-4-ylamino)phenyl)methanesulfonamide hydrochloride]
IC50: 0.1 to 1 µM

COc1ccc(Nc2nc(Nc3ccc(F)cc3OC)ncc2Cl)c(NS(C)(=O)=O)c1 [Example 43, N-(2-(5-chloro-2-(4-fluoro-2-methoxyphenylamino)pyrimidin-4-ylamino)-5-methoxyphenyl)methanesulfonamide]
IC50: 0.1 to 1 µM

COc1ccc(Nc2nc(Nc3cc(OC)c(CC(=O)O)cc3OC)ncc2Cl)c(NS(C)(=O)=O)c1 [Example 100, 2-(4-((5-chloro-4-((4-methoxy-2-(methylsulfonamido)phenyl)amino)pyrimidin-2-yl)amino)-2,5-dimethoxyphenyl)acetic acid]
IC50: ≤ 0.1 µM

COc1ccc(OCCO)cc1Nc1ncc(Cl)c(Nc2cccc(OC)c2NS(C)(=O)=O)n1 [Example 119, N-(2-(5-chloro-2-(5-(2-hydroxyethoxy)-2-methoxyphenylamino)pyrimidin-4-ylamino)-6-methoxyphenyl)methanesulfonamide]
IC50: 0.1 to 1 µM

COc1ccc(Nc2nc(Nc3ccc(OCC(N)=O)cc3C)ncc2Cl)c(NS(C)(=O)=O)c1 [Example 90, 2-(4-((5-chloro-4-((4-methoxy-2-(methylsulfonamido)phenyl)amino)pyrimidin-2-yl)amino)-3-methylphenoxy)acetamide]
IC50: ≤ 0.1 µM

COc1ccc(Nc2ncc(Br)c(Nc3ccccc3NS(C)(=O)=O)n2)c(OC)c1 [Example 26, N-(2-(5-bromo-2-(2,4-dimethoxyphenylamino)pyrimidin-4-ylamino)phenyl)methanesulfonamide]
IC50: 0.1 to 1 µM

COc1ccc(OC)c(Nc2ncc(F)c(Nc3ccccc3NS(C)(=O)=O)n2)c1 [Example 15, N-(2-(2-(2,5-dimethoxyphenylamino)-5-fluoropyrimidin-4-ylamino)phenyl)methanesulfonamide]
IC50: 1 to 10 µM

COc1ccc(Nc2nc(Nc3cc(OC)c(F)cc3F)ncc2Cl)c(NS(C)(=O)=O)c1 [Example 58, N-(2-(5-chloro-2-(2,4-difluoro-5-methoxyphenylamino)pyrimidin-4-ylamino)-5-methoxyphenyl)methanesulfonamide hydrochloride]
IC50: 0.1 to 1 µM

COc1ccc(Nc2nc(Nc3cc(OCCO)c(OC)cc3C)ncc2Cl)c(NS(C)(=O)=O)c1 [Example 114, N-(2-(5-chloro-2-(5-(2-hydroxyethoxy)-4-methoxy-2-methylphenylamino)pyrimidin-4-ylamino)-5-methoxyphenyl)methanesulfonamide]
IC50: 1 to 10 µM
